# According to ChEMBL document CHEMBL2074248, “Regulation of biliary drug efflux pump expression by hormones and xenobiotics” (Toxicology, 2001):
# Legend:
# Bile salt export pump [1] = molecular target: T1, Bile salt export pump (Rattus norvegicus, UniProt O70127); assay: TP_TRANSPORTER: Northern blot in vivo rat; type: functional, organism-based, Liver
# T1 sequence (O70127 whole entry): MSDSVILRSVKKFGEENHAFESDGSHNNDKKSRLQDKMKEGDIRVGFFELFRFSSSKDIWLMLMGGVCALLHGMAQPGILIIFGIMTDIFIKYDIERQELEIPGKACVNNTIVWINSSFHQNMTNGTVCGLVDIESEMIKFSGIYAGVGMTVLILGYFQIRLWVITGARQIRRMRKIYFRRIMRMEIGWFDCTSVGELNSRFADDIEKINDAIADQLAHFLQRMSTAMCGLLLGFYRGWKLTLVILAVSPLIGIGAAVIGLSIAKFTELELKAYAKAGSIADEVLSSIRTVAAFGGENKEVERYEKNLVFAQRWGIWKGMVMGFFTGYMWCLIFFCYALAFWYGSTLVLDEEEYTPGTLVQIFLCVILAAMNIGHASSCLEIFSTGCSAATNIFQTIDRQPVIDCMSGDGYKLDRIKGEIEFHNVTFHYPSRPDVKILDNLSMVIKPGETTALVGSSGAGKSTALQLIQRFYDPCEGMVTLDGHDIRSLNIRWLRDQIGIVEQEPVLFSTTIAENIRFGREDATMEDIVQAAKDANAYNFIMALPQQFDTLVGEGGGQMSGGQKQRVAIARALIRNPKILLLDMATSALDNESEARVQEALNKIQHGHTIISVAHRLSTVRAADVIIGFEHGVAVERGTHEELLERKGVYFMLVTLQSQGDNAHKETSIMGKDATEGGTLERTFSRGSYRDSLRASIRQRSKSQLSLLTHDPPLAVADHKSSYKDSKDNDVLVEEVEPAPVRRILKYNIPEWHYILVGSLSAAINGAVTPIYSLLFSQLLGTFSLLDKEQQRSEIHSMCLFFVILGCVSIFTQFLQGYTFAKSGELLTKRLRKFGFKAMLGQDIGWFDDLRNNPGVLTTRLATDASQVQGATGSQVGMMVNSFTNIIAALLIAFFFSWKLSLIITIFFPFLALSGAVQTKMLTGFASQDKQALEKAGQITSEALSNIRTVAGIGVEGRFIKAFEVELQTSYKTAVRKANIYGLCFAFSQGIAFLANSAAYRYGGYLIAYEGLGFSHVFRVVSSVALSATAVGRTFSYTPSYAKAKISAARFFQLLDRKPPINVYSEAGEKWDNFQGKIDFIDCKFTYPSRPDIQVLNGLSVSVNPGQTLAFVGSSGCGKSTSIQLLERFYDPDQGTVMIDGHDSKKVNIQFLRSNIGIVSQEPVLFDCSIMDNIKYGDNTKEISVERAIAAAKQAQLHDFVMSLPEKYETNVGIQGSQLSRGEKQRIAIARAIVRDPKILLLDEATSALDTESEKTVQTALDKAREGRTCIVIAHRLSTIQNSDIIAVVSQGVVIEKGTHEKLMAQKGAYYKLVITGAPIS
# Bile salt export pump [2] = molecular target: T1, Bile salt export pump; assay: TP_TRANSPORTER: Northern blot from primary hepatocytes; type: functional, cell-based, Sprague-Dawley, Hepatocyte
smiles,measurement,setting,value
C[C@@H]1C[C@H]2[C@@H]3CCC4=CC(=O)C=C[C@]4(C)[C@@]3(F)[C@@H](O)C[C@]2(C)[C@@]1(O)C(=O)CO [DEXAMETHASONE],Activity,Bile salt export pump [1],inducer [+]
same,Activity,Bile salt export pump [2],inducer [+]
